Assays:
Format in all cases: cell-based
HeLa cells = assay: Confocal microscopy imaging of HeLa cells treated with complexes; settings: 50 μM, 37° C., 1 h, excitation 405 nm
Description: (§1) Experiments were conducted to show the working of the staining dye of the present invention. HeLa and MCF-7 cells were grown on sterile glass coverslips in a 60-mm tissue culture dish and incubated at 37° C. under a 5% CO2 atmosphere for 48 h. The culture medium was removed and replaced with medium/DMSO (99:1, v/v) containing the complex at a concentration of 50 μM. After incubation for 1 h, the coverslips were washed with PBS (5 mL×3), and then mounted onto slides for measurements. Imaging was performed using a confocal microscope (Leica TCS SPE) with an excitation wavelength at 405 nm. The emission was measured using a long-pass filter at 532 nm. FIG. 6 illustrates experimental results with fluorescence laser-scanning confocal microscopy images of HeLa cells treated with complexes (50 μM) at 37° C. for 1 h. FIG. 7 illustrates experimental results with fluorescence laser-scanning confocal microscopy images of MCF-7 cells treated with complexes (50 μM) at 37° C. for 1 h.

MCF-7 cells [1] = assay: Confocal microscopy imaging of MCF-7 cells treated with complexes; settings: 50 μM, 37° C., 1 h, excitation 405 nm
Description: as §1

MCF-7 cells [2] = assay: Co-staining with CellMask deep red plasma membrane stain; settings: complex 50 μM 1 h, CellMask deep red plasma membrane stain 0.25 μL/ml 5 min
Description: Further experiments were conducted to co-stain cells with the complex [Ir(ppyCH2NH—C10)2(bpy-tris)]Cl and the CellMask™ deep red plasma membrane stain. […] Please see FIG. 8 showing fluorescence laser-scanning confocal microscopy images of MCF-7 cells treated with the bpy-tris complex (50 μM, 1 h) and the CellMask™ deep red plasma membrane stain (0.25 μL/ml, 5 min).

Compound | cellular staining pattern (membrane staining / localization) (HeLa cells) | cellular staining pattern (membrane staining / localization) (MCF-7 cells [1]) | colocalization coefficient (MCF-7 cells [2]) [%]
[Ir(ppyCH2NH—C10)2(bpy-tris)]Cl | much better membrane staining | much better membrane staining | 92.9
Cc1ccnc(-c2cc(C(=O)O)ccn2)c1 [bpy-COOH] | much better membrane staining | much better membrane staining | 
